Source: US20060263805A1, “Diagnosing and treating potassium channel defects” (priority 2005, published 2006)

Legend:
Kir6.1-KO hearts = assay: Coronary flow in isolated perfused Kir6.1-KO hearts; set-up: species or system mice
Procedure: Coronary Flow. The aorta was cannulated in situ. […] Coronary flow was continuously measured with a T106 small animal blood flow meter (Transonic Systems Incorporated). The effect of recombinant murine TNFα was assessed at least 20 min after flow stabilization. […] Maximum vasodilation was defined as the peak increase in coronary flow observed in the wild-type in response to 10 μl of 1 mM adenosine after at least 10 min of return to baseline flow on TNFα washout.

wild-type hearts [1] = assay: Coronary flow in isolated perfused wild-type hearts; set-up: species or system mice
[2] = tested on: patient with atrial fibrillation; type: in vivo, human; conditions: for response of atrial fibrillation to antiarrhythmic medical therapy: patient
[3] = tested on: hypertensive wild-type mice; assay: Mineralocorticoid/salt hypertension with pharmacologic intervention, wild-type mice; type: in vivo; conditions: verapamil 250 μg orally daily
Procedure: KATP Channel Knockout and Experimental Hypertension. KATP channel-deficient mice (Kir6.2-KO) were generated by targeted disruption of the KCNJ11 gene (Miki et al., 1998, PNAS USA, 95:10402-6) which encodes the pore-forming Kir6.2 channel subunit of myocardial but not renal or vascular KATP channels, and backcrossed for 5 generations to a C57BL/6 background. […] Water or salt water intake was measured weekly. All mice were given standard rodent chow, had similar awake non-fasting blood glucose levels measured by tail sampling (Table 2; OneTouch Ultra, Lifescan), were housed individually with a 12 h day/night cycle, and were observed daily until termination of the study at day 21. Following one-week of acclimatization, blood pressure was measured by automated tail-cuff recording (Columbus Instruments) in awake restrained wild-type and Kir6.2-KO mice, 2 weeks post-nephrectomy with or without mineralocorticoid/salt loading. […]
Gross Pathology and Tissue Fibrosis. […] Lung samples were dried at 65° C. for 48 h and reweighed with pulmonary congestion assessed by comparing wet to dry lung weight ratios. Interstitial fibrosis was quantified by computer analysis (MetaMorph, Visitron Universal Imaging) of 0.5-μm thick, paraffin-embedded, Masson's trichrome-stained sections. […] All quantification was performed blinded to the sample origin. […]

Kir6.1-KO mice = conditions: mouse, in vivo, sc
Excerpt: Kir6.1-deficient Mice. Mice deficient in vascular KATP channels (Kir6.1-KO), while maintaining normal KATP channel current in non-vascular tissues including the myocardium, were generated by targeted disruption of the KCNJ8 gene encoding the pore-forming Kir6.1 subunit and backcrossed for more than 5 generations to a C57BL/6 background (Miki et al., 2002, Nat. Med., 8:466-72). Six to eight week-old Kir6.1-KO mice were compared to age and sex matched wild-type littermate controls or to mice lacking non-vascular, including myocardial, KATP channels generated by targeted disruption of the KCNJ11 gene that encodes the Kir6.2 channel pore (Zingman et al., 2002, PNAS USA, 99:13278-83; Suzuki et al., 2001, Circ. Res., 88:570-7). […] Comparisons between groups were performed by analysis of variance, Student's t-tests, non-parametric or log-rank tests, using JMP software (SAS). Data are presented as mean±SEM; n refers to the sample size. P<0.05 was predetermined. All chemicals were obtained from Sigma. The Mayo Foundation Institutional Animal Care and Use Committee approved all experimental protocols.
Endotoxic Shock. The shock state of severe sepsis was modeled by administration of Escherichia coli LPS serotype 0111:B4 (Natanson et al., 1989, J. Exp. Med., 169:823-32; Suffredini et al., 1989, N. Engl. J. Med., 321:280-7). […]

[4] = tested on: hypertensive Kir6.2-KO mice; conditions: verapamil 250 μg orally daily
Excerpt: KATP Channel Knockout and Experimental Hypertension. KATP channel-deficient mice (Kir6.2-KO) were generated by targeted disruption of the KCNJ11 gene (Miki et al., 1998, PNAS USA, 95:10402-6) which encodes the pore-forming Kir6.2 channel subunit of myocardial but not renal or vascular KATP channels, and backcrossed for 5 generations to a C57BL/6 background. With approval of the Mayo Foundation Institutional Animal Care and Use Committee, Kir6.2-KO or 8- to 12-week old, age-matched, C57BL/6 male wild-type mice had left nephrectomy through a retroperitoneal flank excision under isoflurane-anesthesia to reduce clearance and mineralocorticoid-hypertension was induced for 21 days by subcutaneous implantation of a 50 mg 21-day-release deoxycorticosterone-acetate pellet (Innovative Research of America) and drinking water supplementation with 1% NaCl/0.2% KCl. Control wild-type or Kir6.2-KO mice underwent nephrectomy alone. Water or salt water intake was measured weekly. […] Following one-week of acclimatization, blood pressure was measured by automated tail-cuff recording (Columbus Instruments) in awake restrained wild-type and Kir6.2-KO mice, 2 weeks post-nephrectomy with or without mineralocorticoid/salt loading. Systolic blood pressure was digitally derived from ten sequential recordings.
Gross Pathology and Tissue Fibrosis. At 21 days, whole heart, left ventricle including septum, kidney and lungs were removed, rinsed, blotted dry, and weighed ex vivo. Lung samples were dried at 65° C. for 48 h and reweighed with pulmonary congestion assessed by comparing wet to dry lung weight ratios. Interstitial fibrosis was quantified by computer analysis (MetaMorph, Visitron Universal Imaging) of 0.5-μm thick, paraffin-embedded, Masson's trichrome-stained sections. Kidney or left ventricular collagen content was determined by assaying hydroxyproline content after overnight hydrolysis by 12 N HCl with samples run in duplicate against standard hydroxyproline (Sigma). All quantification was performed blinded to the sample origin.
Isolated Cardiomyocytes, Immunohistochemistry and Calcium Imaging. […]

wild-type mice = assay: Telemetric rhythm monitoring under isoproterenol challenge, wild-type mice; type: in vivo; conditions: isoproterenol 10 mg/kg injection
Excerpt: (§1) KATP channel knockout mice were backcrossed for 5 generations to a C57BL/6 background. With approval of the Mayo Foundation Institutional Animal Care and Use Committee, the heart rate and electrocardiogram were continuously monitored in the conscious state. To this end, KATP channel knockout or 8- to 12-week old, age- and sex-matched C57BL/6 wild-type mice were implanted with telemetry devices (Data Sciences International) and leads tunneled subcutaneously under isoflurane anesthesia. Following a 2-week recovery from surgery, serial signals were acquired at 2 kHz before and during isoproterenol challenge.

Kir6.2 knockout mice = assay: Telemetric rhythm monitoring under isoproterenol challenge, KATP channel knockout mice; type: in vivo; conditions: isoproterenol 10 mg/kg injection; within 20 min
Excerpt: as §1

Kir6.2-KO hearts = assay: Monophasic action potentials in Langendorff-perfused Kir6.2-KO hearts under isoproterenol; set-up: species or system mice
Excerpt: Kir6.2-knockout mice. Mice deficient in KATP channels were generated by targeted disruption of the KCNJ11 gene, which encodes the pore-forming Kir6.2 subunit of the channel complex (Miki et al., 1998, supra). Kir6.2-knockout mice were backcrossed for five generations into a C57BL/6 background. This investigation was approved by the Mayo Clinic Institutional Animal Care and Use Committee.
(§2) In situ aortic cannulation and Langendorff perfusion. Mice were anesthetized with intraperitoneal injection of 2,2,2 tri-bromoethanol (0.375 mg/g body weight; Sigma), intubated, ventilated, and the aortic root cannulated in situ (Hodgson et al., 2003, supra). Perfusion was sustained ex vivo on a Langendorff system at 90 cm H2O, with 37° C.-prewarmed and 100% O2-bubbled Tyrode solution (in mM: NaCl 137, KCl 5.4, CaCl2 2, MgCl2 1, HEPES 10, glucose 10; pH 7.4 with NaOH). Following 10-min equilibration, KCl was reduced to 2.7 mM and MgCl2 to 0.35 mM, with the atrioventricular node cauterized to allow ventricular pacing. Coronary flow was monitored with a T106 blood flow meter (Transonic Systems).
(§3) Electrogram and monophasic action potential recordings. Orthogonal electrogram signals were simultaneously recorded using four silver-silver chloride electrodes surrounding the perfused heart in a simulated “Einthoven” configuration, and signals amplified by an electrocardiographic amplifier (Gould Electronics). A catheter (NuMed) was placed in the left ventricular endocardium to pace the heart at twice diastolic threshold intensity with 2 ms pulse width and 100 ms cycle length using a pulse generator (A310 Accupulser, World Precision Instruments). Monophasic action potentials were continuously recorded from the left ventricle by a probe (EP Technologies) positioned on the epicardial surface, and amplified signals (IsoDam, World Precision Instruments) acquired at 11.8 kHz and stored for off-line digital analysis.

wild-type hearts [5] = assay: Monophasic action potentials in Langendorff-perfused wild-type hearts under isoproterenol; set-up: species or system mice
Procedure: as §2, §3

wild-type SUR2A NBD2 = assay: NBD2 ATPase activity by spectrophotometry, wild-type; type: biochemical
Procedure: (§4) Cloning of KATP channel subunits and purification of SUR2A ATPase. cDNAs encoding SUR2A and Kir6.2 were subcloned into the expression vector pcDNA3.1. PCR-based site-directed mutagenesis was carried out using primers incorporating identified mutations (QuickChange, Stratagene). The constructs were sequenced to verify mutations and rule out additional changes in sequence. […]
(§5) Enzymology and nucleotide binding. ATPase activity of purified NBD2 was measured in the presence of Mg^2+, as Pi generation detected spectrophotometrically at 360 nm with the EnzChek Phosphate Assay Kit or by monitoring conversion of [γ-^32P]ATP using thin layer chromatography and quantified it with Phosphorlmager and ImageQuant software (Molecular Dynamics) (Zingman et al., 2002, supra). […] Binding of fluorescent ATP analog TNP-ATP to purified NBD2 constructs was determined by fluorescence spectrophotometry (QuantaMaster, PTI) at excitation and emission wavelengths of 410 nm and 540 nm, respectively. […]
(§6) The ADP dissociation constant, KADP, was determined from spectrometric measurement of steady-state NBD2 ATPase activity at [ADP]=O with variable [ATP]. […]

A1513T SUR2A NBD2 = assay: NBD2 ATPase activity by spectrophotometry, A1513T mutant; type: biochemical
Procedure: as §4, §5, §6

Fs1524 SUR2A NBD2 = assay: NBD2 ATPase activity by spectrophotometry, Fs1524 mutant; type: biochemical
Procedure: as §4, §5, §6

[6] = tested on: wild-type and mutated SUR2A NBD2; assay: TNP-ATP binding to purified NBD2 constructs (fluorescence, Scatchard); conditions: Scatchard analysis
Procedure: Enzymology and nucleotide binding. ATPase activity of purified NBD2 was measured in the presence of Mg^2+, as Pi generation detected spectrophotometrically at 360 nm with the EnzChek Phosphate Assay Kit or by monitoring conversion of [γ-^32P]ATP using thin layer chromatography and quantified it with Phosphorlmager and ImageQuant software (Molecular Dynamics) (Zingman et al., 2002, supra). The initial kinetics of ATP hydrolysis was captured by stopped-flow spectroscopy with instantaneous mixing of purified polypeptide and substrate on an SX. 18MV spectrometer (Applied Photophysics). Binding of fluorescent ATP analog TNP-ATP to purified NBD2 constructs was determined by fluorescence spectrophotometry (QuantaMaster, PTI) at excitation and emission wavelengths of 410 nm and 540 nm, respectively.

[7] = tested on: hypertensive wild-type mice; assay: Dobutamine challenge, left ventricular catheterization, hypertensive wild-type; type: in vivo; conditions: dobutamine 15 mg/kg i.p.
Procedure: Left Ventricular Catheterization. Invasive left ventricular pressure recordings were measured in vivo by a 1.4-Fr micropressure catheter (SPR-671, Millar Instruments) following carotid arterial cannulation and advancement across the aortic valve under 2,2,2 tri-bromoethanol ([…] i.p.; Sigma) anesthesia, before and after dobutamine (15 mg/kg i.p.) challenge. Left ventricular developed pressure was defined as the absolute difference between the maximum and minimum left ventricular pressure (mm Hg) and the relaxation time as the time from maximal rate of pressure decay to minimum left ventricular pressure (ms).

[8] = ADP-dependent inhibition at 2 mM ATP, read-out: ADP-dissociation constant (KADP)
[9] = 0 ADP, creatine kinase 0.01 U/ml, creatine phosphate 5 mM

TNFα
TNFα-induced increase in coronary flow (Kir6.1-KO hearts; 4, 8 or 20 μg/l TNFα): not observed | coronary vasodilation (coronary flow) under TNFα (wild-type hearts [1]; recombinant TNFα 4 μg/l): induced maximal coronary vasodilation

CC(C)NCC(O)c1ccc(NS(C)(=O)=O)cc1 (stereo not drawn) [sotalol]
complication of drug use ([2]; human, in vivo): symptomatic bradycardia | response of atrial fibrillation to antiarrhythmic medical therapy [2]: refractory and/or intolerant

COc1ccc(Cl)cc1C(=O)NCCc1ccc(S(=O)(=O)NC(=O)NC2CCCCC2)cc1 [glyburide]
TNFα-induced increase in coronary flow after glyburide pre-treatment (wild-type hearts [1]; 10 min perfusion of 10 μM glyburide before TNFα): not observed

COc1ccc(CCN(C)CCCC(C#N)(c2ccc(OC)c(OC)c2)C(C)C)cc1OC (stereo not drawn) [verapamil]
coronary vasodilation in TNFα-challenged hearts (Kir6.1-KO hearts; 1 μM verapamil after TNFα): reinstated coronary vasodilation | left ventricular hypertrophy [3]: not affected | median survival time (Kir6.1-KO mice): 24 h | mortality ([4]; hypertensive Kir6.2-KO): prevention of all mortality | syndrome of heart failure including lung congestion ([4]; hypertensive Kir6.2-KO): averted | degree of systemic hypertension [4]: did not affect

CC(C)NCC(O)c1ccc(O)c(O)c1 (stereo not drawn) [isoproterenol]
cardiac rhythm after isoproterenol (wild-type mice): maintained normal sinus rhythm | atrial fibrillation under isoproterenol infusion ([2]; patient with ABCC9 mutation, before ablation): provoked | knockouts with atrial fibrillation (Kir6.2 knockout mice): 70% | hearts with isoproterenol-induced afterdepolarizations complicated by triggered activity (Kir6.2-KO hearts; Kir6.2-KO hearts, 6 out of 8): 75% | monophasic action potential duration at 90% repolarization (APD90) after isoproterenol (Kir6.2-KO hearts; Kir6.2-KO hearts, 10-min perfusion, isoproterenol 1 mM, before 79±3): 80 ± 3 ms | early afterdepolarizations, share of action potentials examined (Kir6.2-KO hearts; Kir6.2-KO hearts, isoproterenol challenge): 97±2% | fold higher risk of premature ventricular complexes, Kir6.2-KO versus wild-type (Kir6.2-KO hearts; isoproterenol challenge): 16 fold | hearts with isoproterenol-induced afterdepolarizations complicated by triggered activity (wild-type hearts [5]; 1 out of 6): 16% | monophasic action potential duration at 90% repolarization (APD90) after isoproterenol (wild-type hearts [5]; 10-min perfusion, isoproterenol 1 mM, before 82±2): 74 ± 2 ms | early afterdepolarizations, share of action potentials examined (wild-type hearts [5]; isoproterenol challenge): 1±1%

Nc1ncnc2c1ncn2[C@@H]1O[C@H](COP(=O)(O)OP(=O)(O)O)[C@@H](O)[C@H]1O [ADP]
Kd (wild-type SUR2A NBD2; [8]): 8.6 ± 0.3 µM | Kd (A1513T SUR2A NBD2; [8]): 24.9 ± 5.6 µM | Kd (Fs1524 SUR2A NBD2; [8]): 11 ± 1.5 µM

O=C(NCC1CCCCN1)c1cc(OCC(F)(F)F)ccc1OCC(F)(F)F (stereo not drawn) [flecainide]
response of atrial fibrillation to antiarrhythmic medical therapy [2]: refractory and/or intolerant

TNP-ATP
binding affinity of TNP-ATP, wild-type versus mutated NBD2 [6]: similar

Nc1ncnc2c1ncn2[C@@H]1O[C@H](COP(=O)(O)OP(=O)(O)OP(=O)(O)O)[C@@H](O)[C@H]1O [ATP]
Michaelis-Menten constant of NBD2 ATPase (ATP dependence) (wild-type SUR2A NBD2; [9]): 0.11 ± 0.02 mM | Michaelis-Menten constant of NBD2 ATPase (ATP dependence) (A1513T SUR2A NBD2; [9]): 0.094 ± 0.013 mM | Michaelis-Menten constant of NBD2 ATPase (ATP dependence) (Fs1524 SUR2A NBD2; [9]): 0.084 ± 0.010 mM

CC(CCc1ccc(O)cc1)NCCc1ccc(O)c(O)c1 (stereo not drawn) [dobutamine]
response to inotropic challenge [7]: normal contractile response to the same stress challenge with no death
